The values below are quoted from earlier work in patent US20250275973A1, “USE OF ALC1 INHIBITORS AND SYNERGY WITH PARPI” (EISBACH BIO GMBH, priority 2022, published 2025).

This data set relates to GFP-tagged PARP1 and PARP2. To be noted: U2OS cells treated with PARPi; background section.

`C[C@]1(c2nc3c(C(N)=O)cccc3[nH]2)CCCN1` [veliparib]: the “retention/recruitment of GFP-tagged PARP1 and PARP2 at induced DNA lesions” value is listed as “overall less PARP1/PARP2 recruitment”.
On to `Cn1ncnc1[C@H]1c2n[nH]c(=O)c3cc(F)cc(c23)N[C@@H]1c1ccc(F)cc1` [talazoparib], for which the “retention/recruitment of GFP-tagged PARP1 and PARP2 at induced DNA lesions” value is reported as “enhanced retention”.
